Results taken from US8993617B2, “Ire1alpha endonuclease specific inhibitor with cytotoxic activity” (The Board of Trustees of the Leland Stanford Junior …, priority 2010, dated 2015).

Columns and labels:
[1] = test system: RPMI8226, MM.1S and MM.1R MM cells; assay: in vitro cytotoxicity in MM cell lines, trypan blue exclusion; format: cell-based, human; details: 0, 30 or 60 μM, viable cell number measured daily
Experimental: FIG. 2C is a set of line graphs showing in vitro cytotoxicity of STF-083010. RPMI8226, MM.1S and MM.1R MM cells that were treated with 0, 30 or 60 μM of STF-083010 and viable cell number was measured daily by the trypan blue exclusion method.
(§1) In order to determine anti-myeloma activity of STF-083010, first we treated a panel of MM cell lines with increasing concentrations of the compound in vitro and measured viability by trypan blue exclusion (FIG. 2C). […] Next, we treated RPMI8226 human MM cells grown as tumor xenografts in NSG mice. […] Additionally, we treated fresh CD138+ cells isolated from MM patients and compared the ex vivo toxicity to that of cells from 7 control patients (FIG. 2E, Tables 1,2).

RPMI8226 MM cells = assay: RPMI8226 subcutaneous tumor xenografts in NOD/SCID/IL2Rγ null mice; format: in vivo; details: intraperitoneal, 30 mg/kg once weekly for 2 weeks (d1, d8)
Experimental: FIG. 2D is a line graph showing the antitumor activity of STF-083010 in vivo. RPMI8226 MM cells were established as subcutaneous tumor xenografts in NOD/SCID/IL2Rγ null mice. When tumors reached an average volume of 150 mm3, 2 groups of 5 mice each were treated with 30 mg/kg STF-083010 or drug vehicle once weekly for 2 weeks.
as §1

XBP1 mRNA splicing = assay: endogenous XBP1 mRNA splicing by RT-PCR in ER-stressed RPMI8226 cells; format: cell-based, human
Experimental: FIG. 1B is a gel electrophoresis image showing STF-083010 inhibiting endogenous XBP1 mRNA splicing. RPMI8226 cells were treated with 300 μM thapsigargin (Th), 60 μM STF-083010 or both for indicated amount of time and the relative XBP1 splicing was determined by RT-PCR. Solid arrow indicates the unspliced and broken arrow indicates the spliced form.
(§2) To confirm the molecular target, we analyzed the effect of STF-083010 on endogenous XBP1 mRNA splicing levels in control and ER-stressed RPMI8226 human MM cells (FIG. 1B). […] To establish that this effect was due to a direct interaction between STF-083010 and Ire1α, we analyzed Ire1α enzymatic activity in a cell free system. STF-083010 blocked Ire1α's endonuclease activity (FIG. 1E), without affecting its kinase activity (FIG. 1F).
(§3) Human specimen isolation and assays. Bone marrow aspirates were obtained from MM patients after obtaining informed consent according to institutional guidelines. CD138+ plasma cells were selected by positive magnetic bead selection (StemCell Technologies, Vancouver, Canada) either after isolation of nucleated cells (patients 1-4) or directly (patients 5-8). Peripheral blood cells were obtained by Ficoll-Hypaque density centrifugation from separate control patients. Cell culture, reporter assays, RT-PCR, Western blotting, and bioluminescent imaging.

hIre1α [2] = target: T1, hIre1α (Homo sapiens, UniProt O75460); assay: cell free Ire1α RNase (endonuclease) activity, HAC1 mRNA cleavage; format: biochemical; details: hIre1 with 32P HAC1 508 nt transcript, 30 min, 1-100 μM; read-out: half-maximal inhibition of HAC1 mRNA processing
T1 construct: hIre1α protein containing both Ire1 cytoplasmic kinase and RNase domains; made in house
Experimental: FIG. 1E is a gel electrophoresis image and a line graph showing the STF-083010 effect on cell free Ire1α RNase (endonuclease) activity. […] HAC1 mRNA cleavage reaction was analyzed by separation of products on denaturing polyacrylamide gels, followed by autoradiography. The line graph is the quantitation of HAC1 mRNA processing showing half-maximal inhibition at approximately 25 μM. Error bars represent s.e.m. of 3 independent experiments.
Chemical library screening. […] Autophosphorylation activity was determined with the addition of ^32P-γATP. Endonuclease activity was determined with the addition of radio-labeled HAC1 508 nt RNA substrate synthesized in vitro using α^32P-UTP (Nock S, Gonzalez T, Sidrauski C, Niwa M, Walter P. Purification and activity assays of the catalytic domains of the kinase/endoribonuclease Ire1p from Saccharomyces cerevisiae. Methods Enzymol. 2001; 342:3-10). […] Kinase activity and RNAse cleavage products were quantitated by PAGE and ^32P-γATP or ^32P-UTP autoradiography respectively.

sXBP1 protein = sXBP1 protein production by immunoblotting in MM cell lines; format: cell-based, human; details: 300 μM Th and 60 μM STF-083010
Experimental: FIG. 1C is set of a gel electrophoresis images showing STF-083010 inhibiting the production of sXBP1 protein but not the auto-phosphorylation of Ire1α. The left panel indicates MM cell lines that were treated for the indicated times with 300 μM Th and 60 μM STF-083010 and sXBP1 protein was detected by immunoblotting.
as §2, §3

[3] = test system: CD138+ multiple myeloma cells; assay: ex vivo cytotoxicity in CD138+ cells from MM patients (Annexin V/Propidium Iodide); format: cell-based, human
From the text: MM cells were obtained by CD138+ selection from bone marrow samples from MM patients; lymphocytes were obtained by Ficoll density-gradient centrifugation of peripheral blood samples from control patients, followed by staining with anti CD3, anti CD19 and anti CD56 monoclonal antibodies to differentiate between T-, B- and NK cells.
Next, we treated RPMI8226 human MM cells grown as tumor xenografts in NSG mice. […] Additionally, we treated fresh CD138+ cells isolated from MM patients and compared the ex vivo toxicity to that of cells from 7 control patients (FIG. 2E, Tables 1,2).
as §3

hIre1α [4] = target: T1, hIre1α; assay: cell free Ire1α kinase activity (autophosphorylation, 32P-γATP); format: biochemical; details: 0-100 μM, 32P-γATP autophosphorylation
Experimental: FIG. 1F is a graph and gel that show the effect of STF-083010 on cell free Ire1α kinase activity, Upper: hIre1α was incubated with 32P-γATP and increasing concentrations (0-100 μM) of STF-083010. Ire1α autophosphorylation was analyzed by SDS-PAGE, followed by autoradiography to determine the amount of 32P incorporation (32P-hIRE). […] Error bars represent s.e.m. of 3 independent experiments.
Chemical library screening. The screen was performed in the Stanford High-Throughput Bioscience Center (HTBC). hIre1α protein containing both Ire1 cytoplasmic kinase and RNase domains was expressed and purified from baculovirus as described (Niwa M, Sidrauski C, Kaufman R J, Walter P. A role for presenilin-1 in nuclear accumulation of Ire1 fragments and induction of the mammalian unfolded protein response. Cell. 1999; 99:691-702). Autophosphorylation activity was determined with the addition of ^32P-γATP. Endonuclease activity was determined with the addition of radio-labeled HAC1 508 nt RNA substrate synthesized in vitro using α^32P-UTP (Nock S, Gonzalez T, Sidrauski C, Niwa M, Walter P. Purification and activity assays of the catalytic domains of the kinase/endoribonuclease Ire1p from Saccharomyces cerevisiae. Methods Enzymol. 2001; 342:3-10). […] Kinase activity and RNAse cleavage products were quantitated by PAGE and ^32P-γATP or ^32P-UTP autoradiography respectively.

CD19 positive B cells = assay: ex vivo cytotoxicity in peripheral blood B cells (7-aminoactinomycin D); format: cell-based, human; details: average of UPN 9-15
Experimental: (§4) FIG. 2E is a line graph showing that STF-083010 is preferentially cytotoxic against human MM cells. MM cells were obtained by CD138+ selection from bone marrow samples from MM patients; lymphocytes were obtained by Ficoll density-gradient centrifugation of peripheral blood samples from control patients, followed by staining with anti CD3, anti CD19 and anti CD56 monoclonal antibodies to differentiate between T-, B- and NK cells. Cells were cultured with the indicated concentrations of STF-083010 for 24 h and cell viability was measured by flow cytometric analysis of Annexin V/Propidium Iodide (MM) or 7-aminoactinomycin D (peripheral blood lymphocytes) stained samples.
as §1
(§5) Human specimen isolation and assays. Bone marrow aspirates were obtained from MM patients after obtaining informed consent according to institutional guidelines. […]

Ire1α = target: T2, Ire1α (Homo sapiens, UniProt O75460); assay: Ire1α auto-phosphorylation by immunoblot in RPMI8226 cells; format: cell-based; details: 300 μM Th and 60 μM STF-083010
T2 construct: RPMI8226 cells were treated with 300 μM Th and 60 μM STF-083010; endogenous in cells; host or cells: RPMI8226 human multiple myeloma cells
Experimental: FIG. 1D is a set of gel electrophoresis images in which RPMI8226 cells were treated with 300 μM Th and 60 μM STF-083010 for the indicated times and the levels of phosphorylated and total Ire1α were detected using specific antibodies.

XBP1-luciferase reporter = assay: XBP1-luciferase bioluminescence in transgenic XBP1-luc mice; format: in vivo; details: i.p.
Experimental: FIG. 2A is a bar graph showing that STF-083010 blocks bortezomib-induced XBP1 activity in vivo. Transgenic XBP1-luc mice were injected i.p. with drug vehicle (16% chremophor), 1 mg/kg bortezomib, or 1 mg/kg bortezomib and 60 mg/kg STF-083010 and bioluminescence was measured after 24 h. […] Error bars show s.e.m. of at least 4 animals.
FIG. 2B is a set of images of representative mice before and after treatment.
as §3

CD3 positive T cells = assay: ex vivo cytotoxicity in peripheral blood T cells (7-aminoactinomycin D); format: cell-based, human; details: average of UPN 9-15
Experimental: as §4, §1, §5

[5] = histology (H&E) of normal mouse tissues after treatment; format: in vivo; details: 60 mg/kg×1 and 30 mg/kg×2
Experimental: FIG. 3 is a set of images of the H&E stained sections of normal mouse tissues and RPMI8226 xenograft tumors treated with drug vehicle (16% chremophor in saline) or 30 mg/kg STF-083010 weekly for two weeks.

CD56 positive NK cells = assay: ex vivo cytotoxicity in peripheral blood NK cells (7-aminoactinomycin D); format: cell-based, human; details: average of UPN 9-15
Experimental: as §4, §1, §5

T1 sequence (O75460 465-977 limits assumed): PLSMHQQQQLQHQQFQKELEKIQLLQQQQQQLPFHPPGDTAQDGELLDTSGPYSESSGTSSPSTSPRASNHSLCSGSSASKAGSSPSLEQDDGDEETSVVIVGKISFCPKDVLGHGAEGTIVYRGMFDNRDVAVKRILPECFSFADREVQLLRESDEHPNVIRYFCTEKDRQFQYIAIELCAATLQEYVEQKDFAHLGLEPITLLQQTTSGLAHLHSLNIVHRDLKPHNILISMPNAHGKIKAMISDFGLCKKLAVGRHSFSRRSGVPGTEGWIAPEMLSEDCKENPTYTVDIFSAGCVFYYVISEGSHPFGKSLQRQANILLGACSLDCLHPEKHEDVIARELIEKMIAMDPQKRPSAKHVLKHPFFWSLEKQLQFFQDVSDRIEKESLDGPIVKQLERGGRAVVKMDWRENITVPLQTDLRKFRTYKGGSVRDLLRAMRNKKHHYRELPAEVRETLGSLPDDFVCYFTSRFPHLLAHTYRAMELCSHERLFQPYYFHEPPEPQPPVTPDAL
T2 sequence (O75460 19-977): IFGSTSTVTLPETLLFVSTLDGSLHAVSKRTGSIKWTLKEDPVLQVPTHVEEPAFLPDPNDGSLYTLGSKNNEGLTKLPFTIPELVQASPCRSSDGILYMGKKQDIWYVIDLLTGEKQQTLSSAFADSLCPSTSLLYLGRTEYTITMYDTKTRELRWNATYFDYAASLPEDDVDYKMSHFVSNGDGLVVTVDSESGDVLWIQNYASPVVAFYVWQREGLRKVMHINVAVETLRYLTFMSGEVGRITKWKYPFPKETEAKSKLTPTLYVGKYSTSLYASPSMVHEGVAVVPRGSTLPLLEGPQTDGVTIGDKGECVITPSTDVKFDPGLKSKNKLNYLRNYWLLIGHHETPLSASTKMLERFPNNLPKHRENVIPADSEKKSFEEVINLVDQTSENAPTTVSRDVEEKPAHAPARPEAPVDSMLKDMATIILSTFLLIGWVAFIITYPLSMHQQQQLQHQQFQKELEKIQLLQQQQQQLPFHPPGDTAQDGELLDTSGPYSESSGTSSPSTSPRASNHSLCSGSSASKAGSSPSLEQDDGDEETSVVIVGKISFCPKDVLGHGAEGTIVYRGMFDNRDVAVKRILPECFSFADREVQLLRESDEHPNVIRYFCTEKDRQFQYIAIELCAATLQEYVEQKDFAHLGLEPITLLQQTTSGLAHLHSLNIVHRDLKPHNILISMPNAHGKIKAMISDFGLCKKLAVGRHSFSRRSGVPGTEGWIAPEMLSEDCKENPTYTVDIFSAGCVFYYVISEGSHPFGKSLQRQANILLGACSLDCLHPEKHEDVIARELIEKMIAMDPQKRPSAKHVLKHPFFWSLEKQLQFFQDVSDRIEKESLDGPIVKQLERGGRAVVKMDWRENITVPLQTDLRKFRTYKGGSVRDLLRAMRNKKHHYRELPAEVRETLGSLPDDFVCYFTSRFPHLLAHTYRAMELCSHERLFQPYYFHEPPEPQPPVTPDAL

Compound: O=S(=O)(/N=C/c1c(O)ccc2ccccc12)c1cccs1 [STF-083010, (E)-N-((2-hydroxynaphthalen-1-yl)methylene)thiophene-2-sulfonamide]
- viability of MM cell lines [1]: cytostatic and cytotoxic activity in a dose- and time-dependent manner
- growth of tumor xenografts (RPMI8226 MM cells): significantly inhibited
- XBP1 mRNA splicing induced by thapsigargin (XBP1 mRNA splicing; RPMI8226 cells, 300 μM thapsigargin (Th), 60 μM STF-083010): almost completely blocked
- XBP1 splicing activated by other types of ER stress (XBP1 mRNA splicing; tunicamycin treatment, glucose deprivation or severe hypoxia (data not shown)): inhibited XBP1 splicing
- IC50 (hIre1α [2]): ~25 µM
- production of active sXBP1 protein (sXBP1 protein): inhibited production of active sXBP1 protein
- LD50 24 h in multiple myeloma cells, AVERAGE ([3]; average of UPN 1-8): 27.8 µM
- cytotoxicity to CD138+ cells compared to B (CD19+), T (CD3+), and NK (CD56+) cells ([3]; ex vivo, 24 h): selectively cytotoxic
- Ire1α kinase activity during co-incubation (hIre1α [4]): no significant change
- LD50 (24 h) CD19 positive, AVERAGE (CD19 positive B cells): 73.1 µM
- Ire1α kinase activity, immunoblot of autophosphorylated Ire1α (Ire1α): did not inhibit
- XBP1-luciferase bioluminescent signal when injected with bortezomib (XBP1-luciferase reporter; 1 mg/kg bortezomib and 60 mg/kg STF-083010, 24 h): no increase in bioluminescent signal
- LD50 (24 h) CD3 positive, AVERAGE (CD3 positive T cells): 136.6 µM
- histologic effects after treatment [5]: did not find any histologic effects
- LD50 (24 h) CD56 positive, AVERAGE (CD56 positive NK cells): 71.3 µM

Compound: C/C=C(/C)C(=O)O[C@H]1C(C)=C2[C@H]([C@@H]1OC(=O)CCCCCCC)[C@@](C)(OC(C)=O)C[C@H](OC(=O)CCC)[C@@]1(O)[C@H]2OC(=O)[C@@]1(C)O [thapsigargin, reference compound]
- XBP1 splicing on incubation with thapsigargin alone (XBP1 mRNA splicing; RPMI8226 cells, 300 μM thapsigargin): resulted in XBP1 splicing

Compound: CC(C)C[C@H](NC(=O)[C@H](Cc1ccccc1)NC(=O)c1cnccn1)B(O)O [bortezomib, reference compound]
- XBP1-luciferase bioluminescent activity after bortezomib alone (XBP1-luciferase reporter; 1 mg/kg bortezomib, 24 h): commensurate increase
